Tests used:
[1] = target: 11b-HSD1 (Homo sapiens, UniProt P28845); assay: Enzymatic assay, 11b-HSD1 dependent conversion of cortisone into cortisol (reductase activity); type: biochemical; conditions: recombinant protein, 2 μM cortisone, 45 min at 37 C; read-out: [C1] HSD1-prot Reduct Score
Protocol: The effects of compounds on 11b-HSD1 dependent conversion of cortisone into cortisol (reductase activity) was studied in a reaction mixture containing 30 mM Tris-HCl buffer pH 7.2, 180 μM NADPH, 1 mM EDTA, 2 μM cortisone, 1 μl drug and/or solvent and 11 μg recombinant protein in a final volume of 100 μl.
All incubations were performed for 45 min at 37 C in a water bath. The reaction was stopped by adding 100 μl acetonitrile containing 20 μg corticosterone as internal standard. After centrifugation, the product formation was analysed in the supernatant by HPLC on a Hypersyl BDS-C18 column using 0.05 mM ammonium acetate/methanol (50/50) as solvent. In all of the aforementioned assays, the drugs to be tested were taken from a stock solution and tested at a final concentration ranging from […] to 3.10^−9M. From the thus obtained dose response curves, the pIC50 value was calculated and scored as follows; Score 1=pIC50 value<5, Score 2=pIC50 value in the range of 5 to 6, Score 3=pIC50 value>6. (in this table NT stands for Not Tested).

[2] = target: T1, 11b-HSD1 (Mus musculus, UniProt P50172); assay: Cellular assay, 11b-HSD1 activity in differentiated 3T3-L1 cells; type: cell-based; conditions: 4 hour pre-incubation, read-out: [C2] HSD1 cellular 3T3-L1 Score
T1 construct: Fibroblasts were differentiated into adipocytes; endogenous in cells; host or cells: differentiated 3T3-L1 cells (ATCC-CL-173)
Protocol: The effects on 11b-HSD1 activity was measured in differentiated 3T3-L1 cells and rat hepatocytes.
Mouse fibroblast 3T3-L1 cells (ATCC-CL-173) were seeded at a density of 16500 cells/ml in 12 well plates and grown for 7 days in DMEM medium (supplemented with 10% heat inactivated foetal calf serum, 2 mM glutamine and 25 mg gentamycin) at 37 C in a humidified 5% CO2 atmosphere. Medium was refreshed twice a week. Fibroblasts were differentiated into adipocytes at 37 C in a 5% CO2 humidified atmosphere in growth medium containing 2 μg/ml insulin, 55 μg/ml IBMX and 39.2 μg/ml dexamethasone.
Following a 4 hour pre-incubation with test compound, 0.5 μCi ^3H-cortisone or dehydrocorticosterone, was added to the cultures. One hour later, the medium was extracted on Extrelut^3-columns with 15 ml diethyl ether and the extract was analysed by HPLC as described above.
As for the enzymatic assays, the compounds to be tested were taken from a stock solution and tested at a final concentration ranging from […] to 3.10^−9M. From the thus obtained dose response curves, the pIC50 value was calculated and scored as follows; Score 1=pIC50 value<5, Score 2=pIC50 value in the range of 5 to 6, Score 3=pIC50 value>6. Some of the thus obtained results are summarized in the table below (in this table NT stands for Not Tested).

11b-HSD1 (Homo sapiens, UniProt P28845), sequence (P28845 whole entry): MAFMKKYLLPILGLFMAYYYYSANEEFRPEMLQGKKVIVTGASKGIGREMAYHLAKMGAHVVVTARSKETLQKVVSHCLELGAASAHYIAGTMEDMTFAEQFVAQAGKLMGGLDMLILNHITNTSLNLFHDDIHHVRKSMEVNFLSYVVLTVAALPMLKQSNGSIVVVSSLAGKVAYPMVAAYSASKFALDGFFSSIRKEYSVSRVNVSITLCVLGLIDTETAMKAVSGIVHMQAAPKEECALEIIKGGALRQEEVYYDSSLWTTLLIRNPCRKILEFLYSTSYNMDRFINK
T1 sequence (P50172 whole entry): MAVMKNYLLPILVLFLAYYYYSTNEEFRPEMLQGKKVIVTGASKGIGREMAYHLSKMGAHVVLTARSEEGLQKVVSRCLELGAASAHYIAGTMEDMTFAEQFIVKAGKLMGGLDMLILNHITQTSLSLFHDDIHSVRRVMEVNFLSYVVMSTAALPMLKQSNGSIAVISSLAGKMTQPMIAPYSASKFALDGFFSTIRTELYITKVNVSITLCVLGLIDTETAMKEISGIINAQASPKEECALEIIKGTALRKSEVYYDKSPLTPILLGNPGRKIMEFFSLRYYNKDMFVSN

Compound	IC50 [1] [µM]	IC50 [2] [µM]
C[C@@H](c1ccccc1)N1CC[C@@H](Cc2ccc(F)cc2Cl)C1=O [Compound 151]	< 1	< 1
C[C@H](c1ccccc1)N1CC[C@@H](Cc2ccccc2Cl)C1=O [Compound 40]	1 to 10	< 1
COc1ccccc1CC1CCN(CCc2ccccc2)C1=O (stereo not shown) [Compound 33]	> 10	< 1
Cc1cccc(C)c1CC1CCN(CCCc2ccccc2)C1=O (stereo not shown) [Compound 113]	1 to 10	1 to 10
O=C1C(Cc2ccc3c(c2)OCO3)CCN1CCc1ccccc1 (stereo not shown) [Compound 89]	> 10	1 to 10
COc1cccc(CC2CCN(CCc3ccccc3)C2=O)c1 (stereo not shown) [Compound 24]	1 to 10	> 10
COc1ccccc1C[C@@H]1CCN([C@H](C)c2ccccc2)C1=O [Compound 38]	> 10	1 to 10
Cc1cccc(CC2CCN(CCc3ccccc3)C2=O)c1 (stereo not shown) [Compound 29]	1 to 10	1 to 10
Cc1cccc(C[C@@H]2CCN([C@@H](C)c3ccccc3)C2=O)c1 [Compound 16]	> 10	1 to 10
Cc1ccc([C@@H](O)[C@H]2CCN([C@@H](C)c3ccccc3)C2=O)c(C)c1 [Compound 90]	> 10	1 to 10
COc1ccc(CCN2CCC(Cc3c(Cl)cccc3Cl)C2=O)cc1 (stereo not shown) [Compound 92]	< 1	1 to 10
C[C@@H](c1ccccc1)[C@@H]1CCN([C@@H](C)c2ccccc2)C1=O [Compound 158]	< 1	< 1
C[C@@H](c1ccccc1)N1CC[C@@H](Cc2cccc(Cl)c2Cl)C1=O [Compound 12]	1 to 10	1 to 10
Cc1ccccc1C[C@@H]1CCN([C@H](C)c2ccccc2)C1=O [Compound 62]	> 10	1 to 10
C[C@@H](c1ccccc1)N1CCC(CCc2cccc3ccccc23)(CCc2cccc3ccccc23)C1=O [Compound 116]	> 10	> 10
COc1ccccc1CC[C@H]1CCN([C@@H](C)c2ccccc2)C1=O [Compound 124]	1 to 10	1 to 10
COC[C@H](c1ccccc1)N1CC[C@H](Cc2c(Cl)cccc2Cl)C1=O [Compound 98]	> 10	1 to 10
O=C1[C@H](Cc2c(Cl)cccc2Cl)CCN1[C@@H](CO)c1ccccc1 [Compound 107]	1 to 10	> 10
O=C1C(Cc2ccccc2)CCN1Cc1ccccc1 (stereo not shown) [Compound 61]	> 10	1 to 10
C[C@@H](c1ccccc1)N1CC[C@@H](CCc2ccc(N(C)C)cc2)C1=O [Compound 130]	> 10	1 to 10
COc1ccc(C[C@@H]2CCN([C@H](C)c3ccccc3)C2=O)cc1 [Compound 50]	> 10	1 to 10
O=C1C(Cc2c(Cl)cccc2Cl)CCN1CCc1ccc(Br)cc1 (stereo not shown) [Compound 82]	< 1	1 to 10
C[C@H](c1ccccc1)N1CC[C@H](Cc2ccccc2C#N)C1=O [Compound 64]	> 10	1 to 10
CC[C@]1(Cc2ccccc2C)CCN([C@H](C)c2ccccc2)C1=O [Compound 145]	> 10	> 10
C[C@H](c1ccccc1)N1CC[C@@H](Cc2cccc(Cl)c2Cl)C1=O [Compound 42]	> 10	1 to 10
Cc1ccc([C@H](O)[C@H]2CCN([C@@H](C)c3ccccc3)C2=O)c(C)c1 [Compound 91]	1 to 10	< 1
COc1ccccc1CC[C@@H]1CCN([C@@H](C)c2ccccc2)C1=O [Compound 123]	1 to 10	1 to 10

Compound	IC50 [1] [µM]	IC50 [2] [µM]
COc1ccc(CC[C@@H]2CCN([C@@H](C)c3ccccc3)C2=O)cc1OC [Compound 125]	> 10	> 10
C[C@H](c1ccccc1)[C@H]1CCN([C@@H](C)c2ccccc2)C1=O [Compound 159]	< 1	< 1
C[C@@H](c1ccccc1)N1CC[C@H](Cc2ccc(F)cc2Cl)C1=O [Compound 150]	< 1	< 1
C[C@H](c1ccccc1)N1CC[C@@H](Cc2ccccc2C#N)C1=O [Compound 49]	1 to 10	< 1
CO[C@H](C[C@H]1CCN([C@@H](C)c2ccccc2)C1=O)c1ccccc1 [Compound 157]	1 to 10	< 1
Cc1ccccc1CC1CCN(CCCc2ccccc2)C1=O (stereo not shown) [Compound 110]	1 to 10	1 to 10
COc1ccc(CC[C@H]2CCN([C@@H](C)c3ccccc3)C2=O)cc1OC [Compound 126]	> 10	> 10
O=C1C(Cc2cccc(O)c2)CCN1Cc1ccccc1 (stereo not shown) [Compound 53]	> 10	1 to 10
Cc1cccc(C[C@@H]2CCN([C@H](C)c3ccccc3)C2=O)c1 [Compound 63]	> 10	1 to 10
COc1ccccc1CC1CCN(Cc2ccccc2)C1=O (stereo not shown) [Compound 60]	> 10	1 to 10
Cc1ccccc1CC[C@@H]1CCN([C@@H](C)c2ccccc2)C1=O [Compound 127]	1 to 10	1 to 10
CC(C)(c1ccccc1)N1CCC(Cc2c(Cl)cccc2Cl)C1=O (stereo not shown) [Compound 115]	> 10	< 1
C[C@@H](c1ccccc1)N1CC[C@@H](CCc2ccccc2)C1=O [Compound 72]	> 10	1 to 10
C[C@H](C[C@@H]1CCN([C@@H](C)c2ccccc2)C1=O)c1ccccc1 [Compound 136]	1 to 10	1 to 10
O=C1C(Cc2cc3c(cc2Cl)OCO3)CCN1CCc1ccccc1 (stereo not shown) [Compound 86]	1 to 10	< 1
Cc1ccccc1C[C@@]1(C)CCN([C@@H](C)c2ccccc2)C1=O [Compound 143]	> 10	1 to 10
C[C@@H](c1ccccc1)N1CC[C@@H](Cc2cccc(Cl)c2)C1=O [Compound 18]	1 to 10	1 to 10
O=C1C(Cc2cccc(Cl)c2)CCN1Cc1ccccc1 (stereo not shown) [Compound 51]	> 10	1 to 10
COc1cccc(CC2CCN(Cc3ccccc3)C2=O)c1 (stereo not shown) [Compound 48]	> 10	1 to 10
COc1ccc(CC[C@@H]2CCN([C@@H](C)c3ccccc3)C2=O)cc1 [Compound 132]	1 to 10	1 to 10
COc1ccccc1C[C@@H]1CCN([C@@H](C)c2ccccc2)C1=O [Compound 8]	1 to 10	1 to 10
CCC(CC1(CC(CC)c2ccccc2)CCN([C@@H](C)c2ccccc2)C1=O)c1ccccc1 (mixture of isomers) [Compound 165]	> 10	> 10
O=C1C(Cc2c(F)cccc2F)CCN1CCc1ccccc1 (stereo not shown) [Compound 84]	1 to 10	< 1
C[C@@H](c1ccccc1)N1CCC(C)(c2ccccc2)C1=O (stereo partly shown) [Compound 166]	–	1 to 10
COC[C@@H](c1ccccc1)N1CC[C@H](Cc2c(Cl)cccc2Cl)C1=O [Compound 100]	1 to 10	> 10
O=C1C(Cc2ccc(F)cc2Cl)CCN1CCc1ccccc1 (stereo not shown) [Compound 85]	1 to 10	> 10
C[C@H](c1ccccc1)N1CCC(C)(c2ccccc2)C1=O (stereo partly shown) [Compound 167]	–	> 10

Source: patent publication US9776965B2, “Pyrrolidin-2-one and piperidin-2-one derivatives as 11-beta hydroxysteroid dehydrogenase inhibitors” (Janssen Pharmaceutica N.V., priority 2004, dated 2017)
